Measurements reported in article PMC6947424, “New Targeted Gold Nanorods for the Treatment of Glioblastoma by Photodynamic Therapy” (Journal of Clinical Medicine, 2019).
Residues, ends and D or L forms follow the SMILES beside them. *: point of attachment. Pyropheophorbide(a) = C=Cc1c(C)c2cc3nc(c4c5[nH]c(cc6nc(cc1[nH]2)C(C)=C6CC)c(C)c5C(=O)C4)[C@@H](CCC(=O)*)[C@@H]3C; Hexanoyl(6-maleimido) = O=C1C=CC(=O)N1CCCCCC(=O)*

How the values were obtained:
[1] = Estimation of PS or peptide loading / molar extinction coefficient; format: physicochemical; settings: water, 381 nm, from calibration curve
Experimental: The loading of the PS onto the AuNRs was estimated relying on the molar extinction coefficient (ε) calculated for the MI-K(Pyro)DKPPR-OH conjugate. A calibration curve was developed based on the different concentrations of the conjugate, in water, that correspond to different optical densities (OD). The ε was determined using Beer Lambert’s Law at 381 nm, which constitutes the wavelength of the Soret band of Pyro in water. (3) A = εLC where A, ε, L and C stand for the absorption (OD), molar absorptivity (extinction, L·mol^−1·cm^−1), length (cm) and concentration (mol·L^−1).
The concentration of Pyro in AuNRs@PEG-MI-K(Pyro)DKPPR-OH was calculated for a mass concentration of 1 mg·mL^−1. Moreover, the concentration of the peptide was also determined, as only 1 peptide unit is conjugated to 1 PS molecules. On this basis, the amount of peptide was also estimated to 1 mg·mL^−1 of the functionalized AuNRs.

[2] = in methanol; ref [16]; cited from earlier work
Experimental: Fluorescence quantum yields (Φf) were determined using a tetraphenyl porphyrin (TPP) solution as the fluorescence standard (Φf = 0.11 in toluene, taking into account solvent refractive index and absorption efficiencies. For the direct determination of ^1O2 quantum yield (ΦΔ), excitation was performed with a Xe-arc, the light was separated in a SPEX 1680, 0.22 µm double monochromator. Detection at 1270 nm was carried out through a PTI S/N 1565 monochromator and the emission was monitored by a liquid nitrogen cooled Ge-detector (EO-817L, North Coast Scientific Co, OH, USA). Rose Bengal (R ... || These findings are also consistent with the Φf value of Pyro reported by other authors (Φf = 0.3 and in methanol). […] This property can serve in the ...

[3] = tends to aggregate easily; ref [3],[4],[14],[86]; cited from earlier work

| Compound | molar extinction coefficient (ε) [1] [L/mol/cm] | Φf (fluorescence quantum yield) [2] | solubility in biological media [3] |
| --- | --- | --- | --- |
| C=Cc1c(C)c2cc3nc(c4c5[nH]c(cc6nc(cc1[nH]2)C(C)=C6CC)c(C)c5C(=O)C4)[C@@H](CCC(=O)NCCCC[C@H](NC(=O)CCCCCN1C(=O)C=CC1=O)C(=O)N[C@@H](CC(=O)O)C(=O)N[C@@H](CCCCN)C(=O)N1CCC[C@H]1C(=O)N1CCC[C@H]1C(=O)N[C@@H](CCCNC(=N)N)C(=O)O)[C@@H]3C [MI-K(Pyro)DKPPR-OH] ({Hexanoyl(6-maleimido)}-K(Pyropheophorbide(a))DKPPR-OH) | 64012 | – | – |
| C=Cc1c(C)c2cc3nc(c4c5[nH]c(cc6nc(cc1[nH]2)C(C)=C6CC)c(C)c5C(=O)C4)[C@@H](CCC(=O)O)[C@@H]3C [Pyro, pyropheophorbide-a, reference compound] | – | 0.3 | poorly soluble in biological media |
